Calls of active or inactive are those of the source.
How the values were obtained:
[1] = PAX8-dependent cell viability loss – plate reader, dry powder, dose response (AID 743049); assay type: functional, cell-based
[2] = inhibitors acting on PAX2 in cells – cell-based, plate reader, dry powder samples, selectivity assay for PAX8 inhibitor project, dose response (AID 743048); assay type: functional;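 note: HEK293 cells carrying a WT1 promoter luciferase reporter driven by expressed Pax2; potency is for inhibition of Pax2 driven reporter signal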
[3] = PAX5 cellular inhibition readout – cell-based, plate reader, dry powder samples, selectivity assay for PAX8 inhibitor project, dose response (AID 743047); assay type: functional;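 note: HEK293 cells carrying a Pax5 driven CD19 promoter luciferase reporter; potency of inhibitors that lower reporter luminescence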
[4] = COV434 cell viability loss – plate reader, dry powder, SA7, cytotoxicity control for PAX8 inhibitor project, dose response (AID 743145); assay type: functional, cell-based
Exodeoxyribonuclease V = biological target: T1, Exodeoxyribonuclease V (Escherichia coli (strain K12), UniProt P04993+P07648+P08394); assay: RecBCD inhibition via phage-restricted bacterial growth – absorbance, V66 E. coli, mutant T4 phage, counter-screen for AddAB inhibitor project, dose response (AID 492957); assay type: functional, cell-based, Escherichia coli str. K-12 substr. MG1655
T1 sequence (P04993 whole entry): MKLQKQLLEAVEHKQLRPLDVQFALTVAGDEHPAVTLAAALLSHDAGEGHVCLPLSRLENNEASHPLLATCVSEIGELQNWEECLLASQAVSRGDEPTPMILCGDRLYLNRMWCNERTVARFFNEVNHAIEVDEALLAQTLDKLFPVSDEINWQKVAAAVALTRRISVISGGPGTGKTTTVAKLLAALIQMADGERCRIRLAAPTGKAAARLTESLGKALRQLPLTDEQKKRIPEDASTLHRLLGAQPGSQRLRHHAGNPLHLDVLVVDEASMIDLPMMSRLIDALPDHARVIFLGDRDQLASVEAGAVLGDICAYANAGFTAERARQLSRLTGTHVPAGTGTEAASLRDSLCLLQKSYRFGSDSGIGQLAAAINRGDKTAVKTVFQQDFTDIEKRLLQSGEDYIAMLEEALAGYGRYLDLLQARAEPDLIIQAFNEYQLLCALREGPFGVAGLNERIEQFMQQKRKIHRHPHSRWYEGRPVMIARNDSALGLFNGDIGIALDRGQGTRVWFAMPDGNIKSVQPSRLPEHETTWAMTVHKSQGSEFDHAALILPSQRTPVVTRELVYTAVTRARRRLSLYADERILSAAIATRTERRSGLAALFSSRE
T1 sequence (P07648 whole entry): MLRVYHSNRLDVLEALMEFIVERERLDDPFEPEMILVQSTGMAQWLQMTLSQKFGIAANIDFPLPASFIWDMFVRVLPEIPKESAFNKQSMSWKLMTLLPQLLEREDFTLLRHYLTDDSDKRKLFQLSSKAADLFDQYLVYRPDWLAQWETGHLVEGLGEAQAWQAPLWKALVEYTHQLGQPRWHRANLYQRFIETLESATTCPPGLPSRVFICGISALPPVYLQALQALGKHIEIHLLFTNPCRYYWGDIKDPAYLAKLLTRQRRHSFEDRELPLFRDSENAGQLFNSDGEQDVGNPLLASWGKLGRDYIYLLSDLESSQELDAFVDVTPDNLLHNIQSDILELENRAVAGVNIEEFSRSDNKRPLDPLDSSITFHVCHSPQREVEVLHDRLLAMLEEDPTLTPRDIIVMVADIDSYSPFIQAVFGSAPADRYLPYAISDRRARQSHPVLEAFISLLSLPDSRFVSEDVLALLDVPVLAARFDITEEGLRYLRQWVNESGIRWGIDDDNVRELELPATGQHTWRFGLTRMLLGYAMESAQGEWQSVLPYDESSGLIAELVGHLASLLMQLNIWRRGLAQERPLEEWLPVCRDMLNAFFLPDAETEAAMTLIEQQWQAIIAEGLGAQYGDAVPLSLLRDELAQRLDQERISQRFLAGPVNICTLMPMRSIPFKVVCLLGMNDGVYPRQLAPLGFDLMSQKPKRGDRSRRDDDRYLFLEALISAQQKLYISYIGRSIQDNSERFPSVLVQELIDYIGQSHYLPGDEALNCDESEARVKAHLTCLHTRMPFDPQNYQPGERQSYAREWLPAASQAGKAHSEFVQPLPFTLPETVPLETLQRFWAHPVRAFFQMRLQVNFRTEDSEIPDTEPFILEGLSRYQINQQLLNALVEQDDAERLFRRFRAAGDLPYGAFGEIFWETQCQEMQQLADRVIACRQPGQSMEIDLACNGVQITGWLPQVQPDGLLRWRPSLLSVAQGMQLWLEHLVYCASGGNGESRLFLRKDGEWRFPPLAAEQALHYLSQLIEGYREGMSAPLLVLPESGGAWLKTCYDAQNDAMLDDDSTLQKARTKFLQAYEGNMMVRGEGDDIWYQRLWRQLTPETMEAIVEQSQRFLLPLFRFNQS
T1 sequence (P08394 whole entry): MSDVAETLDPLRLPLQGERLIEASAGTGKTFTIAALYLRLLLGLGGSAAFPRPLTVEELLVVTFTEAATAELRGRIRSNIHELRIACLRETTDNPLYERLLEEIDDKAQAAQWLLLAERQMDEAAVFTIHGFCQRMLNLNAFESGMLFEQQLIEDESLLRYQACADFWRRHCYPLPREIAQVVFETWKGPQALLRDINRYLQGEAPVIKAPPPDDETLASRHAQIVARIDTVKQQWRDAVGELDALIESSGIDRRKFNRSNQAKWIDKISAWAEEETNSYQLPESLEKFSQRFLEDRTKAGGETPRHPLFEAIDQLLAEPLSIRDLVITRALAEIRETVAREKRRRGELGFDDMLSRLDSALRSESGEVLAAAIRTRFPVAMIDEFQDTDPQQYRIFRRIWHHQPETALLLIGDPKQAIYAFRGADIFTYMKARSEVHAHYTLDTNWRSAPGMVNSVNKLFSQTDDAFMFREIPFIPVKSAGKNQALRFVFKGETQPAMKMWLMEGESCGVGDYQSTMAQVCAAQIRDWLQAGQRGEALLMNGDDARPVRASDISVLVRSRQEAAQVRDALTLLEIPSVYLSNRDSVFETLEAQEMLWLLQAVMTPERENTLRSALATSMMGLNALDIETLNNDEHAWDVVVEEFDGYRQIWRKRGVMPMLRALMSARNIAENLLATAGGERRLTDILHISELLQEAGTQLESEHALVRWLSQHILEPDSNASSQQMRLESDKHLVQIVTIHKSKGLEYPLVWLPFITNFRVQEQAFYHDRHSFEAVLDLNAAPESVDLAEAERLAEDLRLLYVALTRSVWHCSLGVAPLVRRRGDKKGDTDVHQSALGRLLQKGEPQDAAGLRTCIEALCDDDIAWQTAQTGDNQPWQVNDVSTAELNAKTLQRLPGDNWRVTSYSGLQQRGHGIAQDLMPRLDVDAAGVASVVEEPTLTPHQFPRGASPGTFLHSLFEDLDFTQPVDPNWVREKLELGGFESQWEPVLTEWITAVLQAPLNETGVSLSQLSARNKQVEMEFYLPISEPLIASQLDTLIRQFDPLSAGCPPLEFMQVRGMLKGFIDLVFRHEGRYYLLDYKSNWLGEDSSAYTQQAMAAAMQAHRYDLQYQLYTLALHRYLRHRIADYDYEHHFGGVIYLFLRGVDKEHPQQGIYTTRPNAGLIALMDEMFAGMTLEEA

Beta-galactosidase = Beta-galactosidase (Escherichia coli, UniProt Q8VNN2); assay: detection-enzyme interference by beta-gal modulators – biochemical, E. coli enzyme, set 3, artefact control for CCR6 antagonist project, dose response (AID 504712); assay type: functional
Chain of Beta-galactosidase (Q8VNN2 whole entry): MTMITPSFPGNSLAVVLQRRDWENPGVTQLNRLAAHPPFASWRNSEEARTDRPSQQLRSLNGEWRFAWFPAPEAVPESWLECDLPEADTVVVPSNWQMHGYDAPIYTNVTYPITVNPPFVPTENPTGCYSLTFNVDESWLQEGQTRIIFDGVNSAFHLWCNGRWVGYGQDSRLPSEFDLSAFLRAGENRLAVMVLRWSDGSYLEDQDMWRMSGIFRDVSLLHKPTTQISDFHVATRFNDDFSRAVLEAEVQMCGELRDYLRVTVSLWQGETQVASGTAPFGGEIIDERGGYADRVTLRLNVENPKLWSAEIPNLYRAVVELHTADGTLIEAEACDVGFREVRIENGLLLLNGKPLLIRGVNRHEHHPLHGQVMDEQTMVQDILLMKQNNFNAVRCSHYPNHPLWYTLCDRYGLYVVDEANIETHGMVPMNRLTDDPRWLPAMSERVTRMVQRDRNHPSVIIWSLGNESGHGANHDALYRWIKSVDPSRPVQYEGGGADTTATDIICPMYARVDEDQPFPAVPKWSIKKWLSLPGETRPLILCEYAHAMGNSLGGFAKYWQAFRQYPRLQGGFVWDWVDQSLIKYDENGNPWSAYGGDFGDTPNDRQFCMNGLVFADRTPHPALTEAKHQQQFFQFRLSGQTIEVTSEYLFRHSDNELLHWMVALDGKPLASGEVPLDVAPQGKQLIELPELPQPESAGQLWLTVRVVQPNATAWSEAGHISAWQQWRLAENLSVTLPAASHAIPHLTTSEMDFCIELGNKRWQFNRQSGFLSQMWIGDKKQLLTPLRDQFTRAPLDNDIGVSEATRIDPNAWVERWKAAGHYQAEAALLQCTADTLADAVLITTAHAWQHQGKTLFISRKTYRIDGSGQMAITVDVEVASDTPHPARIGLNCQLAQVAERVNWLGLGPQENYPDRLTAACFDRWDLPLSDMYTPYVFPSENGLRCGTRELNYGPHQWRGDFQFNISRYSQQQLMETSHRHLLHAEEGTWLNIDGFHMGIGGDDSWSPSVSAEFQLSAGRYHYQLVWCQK

Caspase-6 = Caspase-6 (Homo sapiens, UniProt P55212); assay: inhibition of CASP6 peptide cleavage – biochemical, VEID-R110 fluorescence, cherry-pick, dose response (AID 720632)
Chain of Caspase-6 (P55212 24-179 limits assumed): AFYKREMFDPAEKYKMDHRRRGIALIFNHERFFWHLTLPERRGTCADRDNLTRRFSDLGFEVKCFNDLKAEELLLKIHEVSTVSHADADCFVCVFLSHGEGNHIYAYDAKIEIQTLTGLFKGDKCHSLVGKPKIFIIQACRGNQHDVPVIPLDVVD
Chain of Caspase-6 (P55212 194-293 limits assumed): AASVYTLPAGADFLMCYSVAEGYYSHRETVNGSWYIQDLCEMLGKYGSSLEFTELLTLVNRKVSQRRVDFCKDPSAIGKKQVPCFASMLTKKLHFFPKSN

[5] = Counterscreen for AddAB inhibitors: absorbance-based bacterial cell-based high throughput dose response assay for inhibitors of bacterial viability. [Related pubchem assays (depositor defined):AID435030, AID449728, AID449731, AID488942, AID488955, AID488956]; assay type: functional
[6] = activation of miR-122 Renilla sensor silencing – cell-based, Huh7 psiCHECK-miR122, Renilla luciferase, cherry-picked, dose response (AID 651956); assay type: functional;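 note: huh7 hepatoma cells stably carrying a psiCHECK-2 miR-122 sensor plasmid; renilla luciferase signal reporting endogenous miR-122 activity after 48 h compound exposure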
[7] = reduced cellular PGC1a acetyl-lysine signal – cell-based, cherry-picked samples, dose response (AID 720514); assay type: functional;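 note: potency may reflect raised or lowered acetylation signal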
[8] = general mammalian cell viability loss – inhibitor set, cherry-pick, set 2, cytotoxicity control for miR-122 modulator project, dose response (AID 720697); assay type: functional, cell-based
HEK293 = assay: viability loss in HEK293T cells – cell-based, ATP luminescence, cherry-pick samples, cytotoxicity control, dose response (AID 687005); assay type: functional; settings: Homo sapiens;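 note: cells exposed to compound for 48 hours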
[9] = HEK293 Cytotoxicity Assay Measured in Cell-Based System Using Plate Reader - 7071-01_Inhibitor_Dose_CherryPick_Activity_Set2.; assay type: functional
[10] = biological target: T2, Oxysterols receptor LXR-beta (Homo sapiens, UniProt P55055); assay type: functional, cell-based;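 note: Cell-based luminescence dose-response assay of agonist activity at LXR, run as a confirmatory counterscreen to a daf-12 agonist screen; HEK293 cells with Gal4-LXR fusion and GAL4-driven luciferase reporter; agonist potency from rising luciferase signal of a Gal4-LXR reporter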
T2 sequence (P55055 whole entry): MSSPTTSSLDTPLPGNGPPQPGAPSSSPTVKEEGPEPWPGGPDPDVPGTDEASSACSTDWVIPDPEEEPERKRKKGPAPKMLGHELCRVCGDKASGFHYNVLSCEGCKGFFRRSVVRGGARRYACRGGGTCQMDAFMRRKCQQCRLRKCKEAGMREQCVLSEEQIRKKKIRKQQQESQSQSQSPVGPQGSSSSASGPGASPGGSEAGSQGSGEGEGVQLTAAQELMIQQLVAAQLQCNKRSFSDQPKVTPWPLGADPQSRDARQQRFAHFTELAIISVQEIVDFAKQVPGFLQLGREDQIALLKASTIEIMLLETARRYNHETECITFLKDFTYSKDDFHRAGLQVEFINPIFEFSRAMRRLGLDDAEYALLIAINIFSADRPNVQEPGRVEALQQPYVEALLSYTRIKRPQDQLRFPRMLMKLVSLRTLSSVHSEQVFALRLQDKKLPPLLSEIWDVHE

**Q.** Which AC50 [1] does the source give for N#C[C@@H]1[C@@H](c2ccc(C3=CCCCC3)cc2)[C@@H](CO)N1C(=O)NC1CCCCC1 here?
**A.** 10.6 µM (active)

**Q.** What about the AC50 [2] of the same compound?
**A.** > 32 µM (inactive)

**Q.** And the AC50 [3]?
**A.** 29.3 µM (active)

**Q.** What about the AC50 [4] of the same compound?
**A.** 67.3 µM (active)

**Q.** With O=C(O)c1ccc(N/N=C/C=C/c2ccc([N+](=O)[O-])o2)cc1 as the compound, how does the IC50 (Exodeoxyribonuclease V) read?
**A.** > 119 µM (inactive)

**Q.** What about the IC50 (Beta-galactosidase) of the same compound?
**A.** 33 µM (active)

**Q.** And the AC50 (Caspase-6)?
**A.** 3.34 µM (active)

**Q.** And the IC50 [5]?
**A.** 55.5 µM (inactive)

**Q.** Which results are given for O=C(Nc1ccc(F)cc1)N1CCCCN2[C@H](CO)[C@@H](c3ccc(C#Cc4ccccc4)cc3)[C@H]2C1?
**A.** AC50 [6]: 10.5 µM (active); AC50 [7]: 22.2 µM (active); AC50 [8]: 8.31 µM (active)

**Q.** For COc1ccc(S(=O)(=O)N[C@H]2C=C[C@H](CC(=O)N3CCC(Cc4ccccc4)CC3)O[C@@H]2CO)cc1, which AC50 (HEK293) is on record?
**A.** 9.52 µM (active)

**Q.** And the AC50 [9]?
**A.** 9.52 µM (active)

**Q.** Which results are given for Cc1nn(-c2ccc(Br)cc2)c(=O)c2ccccc12?
**A.** EC50 (cells): > 67.6 µM (inactive); EC50 [10]: > 67.6 µM (inactive)

From ChEMBL document CHEMBL1201862, “PubChem BioAssay data set” (2004)
